# From patent EP0804408B1, “NOVEL 4-SUBSTITUTED 2,6-DI-TERT-BUTYLPHENOL COMPOUNDS, PHARMACEUTICAL COMPOSITIONS CONTAINING SAME AND PREPARATION METHOD THEREFOR” (priority 1994, dated 1996)
# Marks after values point to notes of the source that are not given here.
# What was measured:
# cellules MT4 = experiment: Cytotoxicity control on MT4 cells (uncontaminated AVF1 samples, diluted and ultracentrifuged); format: cell-based, humaines; conditions: non contaminé, dilué et centrifugé, inoculated at dilution 1/4, 10 days culture
# Procedure: • Contrôles négatifs : • . Les cellules utilisées pour le titrage, non infectées (culture témoin). • . les trois concentrations de AVF1 utilisées dans l'étude, diluées en tampon NTE et ultracentrifugées. Ces échantillons (contrôles négatifs) ont été utilisés pour vérifier l'absence de toxicité due à des traces résiduelles de AVF1, sur les cellules MT4. • Contrôles positifs : • . Le VIH-1 dilué en milieu de culture à la dilution réalisée pour l'étude, immédiatement aliquoté et stocké à -80°C (contrôle positif). • . Le VIH-1 dilué en milieu de culture à la dilution réalisée pour l'étude, puis dilué en tampon NTE, ultracentrifugé, filtré sur un filtre de 0,45 µm, aliquoté, stocké à -80°C et titré ultérieurement (contrôle de centrifugation). • . Le VIH-1 dilué en milieu de culture à la dilution réalisée pour l'étude, laissé 10 minutes à température ambiante, puis dilué en tampon NTE, ultracentrifugé, filtré sur un filtre de 0,45 µm, aliquoté, stocké à -80°C et titré ultérieurement (contrôle expérimental).
# Le contrôle de toxicité a été réalisé dans des conditions identiques à celles décrites pour la méthode de titrage, mais en inoculant les cellules MT4 avec les échantillons non contaminés par le VIH-1 et décrits précédemment (contrôle négatif).
# Le critère de non toxicité du produit est établi a été établi en comparant l'aspect morphologique et la viabilité des cellules MT4 inoculées avec du milieu de culture (culture témoin) ou avec les échantillons non contaminés (contrôles négatifs) après 10 jours de culture.
# [1] = system: NO-synthase inductible (iNOS); experiment: iNOS induction test: nitrites in RAW264.7 supernatants by Griess reaction after nitrate reduction; format: cell-based, murins
# Text: Cette hypothèse a été contrôlée en dosant les nitrites dans des surnageants de culture de macrophages murins de lignées activées en présence de AVF1. Les nitrites ont été dosés par la réaction de Griess après réduction de tous le nitrates grâce à la nitrate réductase de Pseudomonas oleoverans (Granger et al., J. Immunol., 1991, 146, 1294-1302). La spécificité de la réaction a été prouvée par l'emploi d'un inhibiteur spécifique de la synthèse du monoxyde d'azote, la N^G-monométhyl-L-arginine (L-NMMA).
# Le test d'induction iNOS consiste à ensemencer les macrophages RAW264.7 dans des plaques à 24 puits à raison de 1 x 10^6 sous 1,6 ml. Après 24 heures de culture permettant d'obtenir un tapis cellulaire complet, AVF1, dilué de raison 10 dans des des doses ne donnant pas de toxicité cellulaire (de 10^-6 à 10^-8 %), est ajouté dans 100 µl par cupule soit sur des macrophages sans activateur, avec ou sans l'inhibiteur de iNOS (action directe du produit sur les macrophages) soit en présence des inducteurs, avec ou sans inhibiteur (action du produit sur des macrophages activés).
# Après 24 heures de culture, les surnageants sont prélevés, centrifugés 10 minutes à 100 g à température ambiantes pour éliminer les éventuels débris cellulaires puis utilisés pour le dosage des nitrites.
# Deux volumes des surnageants clarifiés sont réduits en présence d'un volume d'une suspension de Pseudomonas oleovorans à 100 mg/ml et un volume de D-MEM sans rouge de phénol. Après une incubation de 90 minutes à 37°C sans agitation, les mélanges sont centrifugés 5 minutes à 4 000 g pour éliminer les bactéries et dilués au 1/5 et au 1/10 en eau distillée stérile.
# 100 µl des échantillons réduits et dilués sont distribués dans des séries de 2 puits dans une plaque ELISA (maxicorp, Nunc.). 200 µl du réactif de Griess (mélange ex-temporané volume à volume des solutions de sulfamide à 1,5 g/100 ml de HCl 1,2 N (87,1 mM) - réactif A - et de naphtylènediamine à 0,15 g/100 ml d'eau stérile (5,78 mM) - réactif B -) sont ajoutés.
# Cent autres µl d'échantillon servant de blanc de DO sont distribués et mélangés à 200 µl d'un mélange ex-temporané volume à volume d'eau distillée et du réactif colorimétrique A.
# Après 30 minutes à température ambiante à l'obscurité, la densité optique (DO) des échantillons est lue à 540 nm au lecteur de plaque pour ELISA.
# • Les contrôles du système d'induction iNOS sont composés de : • . Témoin cellules consistant en des macrophages ne recevant que du milieu de culture. • . Témoin d'induction consistant en des macrophages traités par 100 µl de lipopolysaccharide (LPS à 4 µg/ml, Difco) et par 100 µl d'interféron-γ recombinant (IFN-γ à 1 µU/ml, Boerhinger-Mannheim) afin d'activer la iNOS (Schmidt et al., Mol. Pharmacol., 1992, 41, 614-624). Les solutions mères de LPS et de IFN-γont été conservées respectivement à +4°C et à -20°C avant utilisation. • . Témoin d'inhibition spécifique pour prouver que les nitrites dosés proviennent de l'activation de la iNOS. Il consiste à incorporer à la culture un inhibiteur spécifique, la L-NMMA (N^G-monométhyl-L-arginine, Calbiochem) (Hibbs et al., Science, 1987, 235, 473-476) à des concentrations de raison 10 allant de 3 à 300 µM. Cette solution a été conservée sous parties aliquotes à -20°C avant utilisation. • Les contrôles de la réaction de Greiss sont composés de : • . Une solution de nitrate de sodium qui permet de contrôler l'activité nitrate-réductase des bactéries. • . Une gamme étalon de nitrite de sodium qui permet de doser les nitrites dans les échantillons. • Le blanc de DO de la gamme étalon contenant 100 µl d'eau distillée et 200 µl du mélange des réactifs A et B.
# [2] = AVF1 1 x 10^-6 % (10 nM), IFNγ + LPS + L-NMMA (3 µM)
# [3] = AVF1 1 x 10^-6 % (10 nM), IFNγ + LPS + L-NMMA (30 µM)
# [4] = AVF1 1 x 10^-6 % (10 nM), IFNγ + LPS + L-NMMA (300 µM)
# [5] = AVF1 1 x 10^-7 % (1 nM), IFNγ + LPS + L-NMMA (30 µM)
# [6] = AVF1 1 x 10^-7 % (1 nM), IFNγ + LPS + L-NMMA (300 µM)
# [7] = AVF1 1 x 10^-8 % (0,1 nM), IFNγ + LPS + L-NMMA (3 µM)
# [8] = AVF1 1 x 10^-8 % (0,1 nM), IFNγ + LPS + L-NMMA (300 µM)
smiles,measurement,setting,value
"CC(C)(C)c1cc(C(=O)OCCOCCOCCOCCOCCOCCOCCOCCO)cc(C(C)(C)C)c1O [AVF1, 3,5-di-t-butyl-4-hydroxybenzoate d'octaoxyéthylèneglycol]",Remarques (toxicité sur cellules MT4),"cellules MT4; AVF1 dilué à 0,5%",Non toxique (échantillon inoculé à la dilution 1/4)
same,Remarques (toxicité sur cellules MT4),cellules MT4; AVF1 dilué à 1%,Non toxique (échantillon inoculé à la dilution 1/4)
same,Remarques (toxicité sur cellules MT4),cellules MT4; AVF1 dilué à 2%,Non toxique (échantillon inoculé à la dilution 1/4)
same,Concentration moyenne en nitrites en µM sur 2 échantillons,"[1]; AVF1 1 x 10^-6 % (10 nM), IFNγ + LPS","20,9 µM"
same,Concentration moyenne en nitrites en µM sur 2 échantillons,[1]; [2],"5,3 µM"
same,Pourcentage d'inhibition de la production de nitrite,[1]; [2],74%
same,Concentration moyenne en nitrites en µM sur 2 échantillons,[1]; [3],"6,3 µM"
same,Pourcentage d'inhibition de la production de nitrite,[1]; [3],70%
same,Concentration moyenne en nitrites en µM sur 2 échantillons,[1]; [4],"4,8 µM"
same,Pourcentage d'inhibition de la production de nitrite,[1]; [4],77%
same,Concentration moyenne en nitrites en µM sur 2 échantillons,"[1]; AVF1 1 x 10^-6 % (10 nM), cells: Milieu (no activator)","5,0* µM"
same,Concentration moyenne en nitrites en µM sur 2 échantillons,"[1]; AVF1 1 x 10^-7 % (1 nM), IFNγ + LPS","19,5 µM"
same,Concentration moyenne en nitrites en µM sur 2 échantillons,"[1]; AVF1 1 x 10^-7 % (1 nM), IFNγ + LPS + L-NMMA (3 µM)","5,1 µM"
same,Concentration moyenne en nitrites en µM sur 2 échantillons,[1]; [5],"4,9 µM"
same,Pourcentage d'inhibition de la production de nitrite,[1]; [5],76%
same,Concentration moyenne en nitrites en µM sur 2 échantillons,[1]; [6],"5,8 µM"
same,Pourcentage d'inhibition de la production de nitrite,[1]; [6],72%
same,Concentration moyenne en nitrites en µM sur 2 échantillons,"[1]; AVF1 1 x 10^-7 % (1 nM), cells: Milieu (no activator)","4,8* µM"
same,Concentration moyenne en nitrites en µM sur 2 échantillons,"[1]; AVF1 1 x 10^-8 % (0,1 nM), IFNγ + LPS","21,6 µM"
same,Concentration moyenne en nitrites en µM sur 2 échantillons,[1]; [7],"5,0 µM"
same,Pourcentage d'inhibition de la production de nitrite,[1]; [7],76%
same,Concentration moyenne en nitrites en µM sur 2 échantillons,"[1]; AVF1 1 x 10^-8 % (0,1 nM), IFNγ + LPS + L-NMMA (30 µM)","5,2 µM"
same,Concentration moyenne en nitrites en µM sur 2 échantillons,[1]; [8],"5,5 µM"
same,Pourcentage d'inhibition de la production de nitrite,[1]; [8],74%
same,Concentration moyenne en nitrites en µM sur 2 échantillons,"[1]; AVF1 1 x 10^-8 % (0,1 nM), cells: Milieu (no activator)","5,6* µM"
same,induction de monoxyde d'azote (NO) dans les macrophages,"[1]; AVF1 from 10^-6 % downwards, non-activated macrophages, nitrites in supernatants",n'induit pas de monoxyde d'azote (NO)
same,inhibition at 0.01 µM,"[1]; Mus musculus, RAW264.7, AVF1 1 x 10^-6 % (10 nM), IFNγ + LPS, read-out: Pourcentage d'inhibition de la production de nitrite",0%
same,inhibition at 0.001 µM,"[1]; Mus musculus, RAW264.7, AVF1 1 x 10^-7 % (1 nM), IFNγ + LPS, read-out: Pourcentage d'inhibition de la production de nitrite",6%
same,action sur le niveau de production de NO,[1]; macrophages activated by LPS + IFN-γ,n'a aucune action sur le niveau de production
